Measured values from patent publication US20050245399A1, “Pyrazole derivatives as herbicidal compositions containing them” (ISHIHARA SANGYO KAISHA, LTD., priority 2004, published 2005).

Key:
Format in all cases: in vivo
[1] = test system: green foxtail (Setaria viridis L.), SETVI; experiment: Test Example 2 post-emergence (foliage treatment) herbicidal activity, SETVI
Outline: (§1)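 Each species was evaluated for growth suppression by eye, 0% matching untreated and 100% meaning death, some 20 to 23 days after a single post-emergence foliar treatment applied in 500 L/ha of water carrying 0.1% (v/v) agricultural spreader.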

[2] = test system: crabgrass (Digitaria sanguinalis L.): DIGSA; experiment: Test Example 1 pre-emergence herbicidal activity, DIGSA; details: Rate 63 g a.i./ha, visually observed 20th to 23rd day after application
Outline: (§2)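 Upland soil pot test. Formulated compound (wettable powder or emulsifiable concentrate) in water, 500 L/ha, sprayed one day after sowing before emergence; % control rated by eye on day 20–23.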

[3] = test system: corn (Zea mays L.): ZEAMX; experiment: Test Example 1 pre-emergence herbicidal activity, ZEAMX; details: Rate 63 g a.i./ha, visually observed 20th to 23rd day after application
Outline: as §2

[4] = test system: barnyardgrass (Echinochloa crus-galli L.), ECHCG; experiment: Test Example 2 post-emergence (foliage treatment) herbicidal activity, ECHCG
Outline: (§3)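 Leaf stages at treatment differed per species: 1.1-2.1 for ECHCG, 1.0-2.0 for DIGSA, 0.1-1.5 for AMARE and 1.0-2 for ORYSA. Plants grew in pots of upland soil and were sprayed with wettable powder or emulsifiable concentrate in water (500 L/ha) plus spreader at 0.1% (v/v). Visual % control followed on days 20-23.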

[5] = test system: velvetleaf (Abutilon theophrasti), ABUTH; experiment: Test Example 2 post-emergence (foliage treatment) herbicidal activity, ABUTH
Outline: as §1

[6] = test system: prickly sida (Sida spinosa L.): SEDSP; experiment: Test Example 1 pre-emergence herbicidal activity, SIDSP; details: Rate 63 g a.i./ha, visually observed 20th to 23rd day after application
Outline: as §2

[7] = test system: crabgrass (Digitaria sanguinalis L.), DIGSA; experiment: Test Example 2 post-emergence (foliage treatment) herbicidal activity, DIGSA
Outline: as §3

[8] = test system: barnyardgrass (Echinochiloa oryzicola: ECHOR); experiment: Test Example 3 water application herbicidal activity (paddy), ECHOR; details: 63 g a.i./ha, water application under submerged condition at 0.5 leaf stage, visually observed 14th day after application; 0 = untreated control, 100 = complete kill
Outline: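 Compound, as diluted wettable powder or emulsifiable concentrate, was pipetted into flood water at a set active-ingredient dose. Weeds were treated at 0.5-leaf stage after sowing or tuber planting; 2-leaf rice 4 days post-transplant. Control scored visually, 0 untreated to 100 complete kill, weeds day 14, rice day 21.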

[9] = test system: barnyardgrass (Echinochloa crus-galli L.): ECHCG; experiment: Test Example 1 pre-emergence herbicidal activity, ECHCG; details: Rate 63 g a.i./ha, visually observed 20th to 23rd day after application
Outline: as §2

[10] = test system: common cocklebur (Xanthium strumarium L.): XANST; experiment: Test Example 1 pre-emergence herbicidal activity, XANST; details: Rate 63 g a.i./ha, visually observed 20th to 23rd day after application
Description: Upland field soil was put into a 1/170,000 ha pot, and seeds of various plants {1. barnyardgrass (Echinochloa crus-galli L.): ECHCG, 2. crabgrass (Digitaria sanguinalis L.): DIGSA, 3. green foxtail (Setaria viridis L.): SETVI, 4. redroot pigweed (Amaranthus retroflexus L.): AMARE, 5. prickly sida (Sida spinosa L.): SEDSP, 6. velvetleaf (Abutilon theophrasti): ABUTH, 7. common cocklebur (Xanthium strumarium L.): XANST, 8. rice (Oryza sativa L.): ORYSA, 9. wheat (Triticum aestivum L.): TRZAX, 10. corn (Zea mays L.): ZEAMX, 11. soybean (Glycine max Merr.): GLXMA} were sown. Then, one day after the sowing, a wettable powder or emulsifiable concentrate having the compound of the present invention formulated in accordance with a usual formulation method, was weighed so that the active ingredient would be a predetermined amount and diluted with water in an amount of 500 L/ha. The herbicide adjusted was applied by a small size sprayer for preemergence treatment. On the 20th to 23rd day after the application of the herbicide, the growth of the respective plants was visually observed, and the herbicidal effects were evaluated by growth controlling degrees (%) ranging from 0 (equivalent to the untreated control) to 100 (complete kill), whereby the results shown in Table 4, were obtained. Compound Nos. in Table 4 correspond to Compound Nos. in Table 1 and 2 given hereinbefore.

[11] = test system: rice (Oryza sativa L.): ORYSA; experiment: Test Example 1 pre-emergence herbicidal activity, ORYSA; details: Rate 63 g a.i./ha, visually observed 20th to 23rd day after application
Outline: as §2

[12] = test system: green foxtail (Setaria viridis L.): SETVI; experiment: Test Example 1 pre-emergence herbicidal activity, SETVI; details: Rate 63 g a.i./ha, visually observed 20th to 23rd day after application
Outline: as §2

[13] = test system: redroot pigweed (Amaranthus retroflexus L.), AMARE; experiment: Test Example 2 post-emergence (foliage treatment) herbicidal activity, AMARE
Outline: as §3

[14] = test system: prickly sida (Sida spinosa L.), SIDSP; experiment: Test Example 2 post-emergence (foliage treatment) herbicidal activity, SIDSP
Outline: as §1

[15] = test system: corn (Zea mays L.), ZEAMX; experiment: Test Example 2 post-emergence (foliage treatment) herbicidal activity, ZEAMX
Outline: as §1

Row | SMILES | growth controlling degree, SETVI ([1]; 63 g a.i./ha) | Pre-emergence Herbicidal Activity DIGSP (growth controlling degree) [2] | Pre-emergence Herbicidal Activity ZEAMX (growth controlling degree) [3] | growth controlling degree, ECHCO ([4]; 63 g a.i./ha) | growth controlling degree, ABUTH ([5]; 63 g a.i./ha) | Pre-emergence Herbicidal Activity SIDSP (growth controlling degree) [6] | growth controlling degree, DIGSP ([7]; 63 g a.i./ha) | growth controlling degrees (%) ECHOR [8] | Pre-emergence Herbicidal Activity ECHCG (growth controlling degree) [9] | Pre-emergence Herbicidal Activity XANST (growth controlling degree) [10] | Pre-emergence Herbicidal Activity ORYSA (growth controlling degree) [11] | Pre-emergence Herbicidal Activity SETVI (growth controlling degree) [12] | growth controlling degree, AMARE ([13]; 63 g a.i./ha) | growth controlling degree, SIDSP ([14]; 63 g a.i./ha) | growth controlling degree, ZEAMX ([15]; 63 g a.i./ha) | also measured
1 | COc1c(Cl)cc(F)c(-c2nn(C)c(OC(F)F)c2Cl)c1N(C=O)CC(=O)c1ccccc1 [Compound 1-12] | 95% | 30% | 10% | 70% | 100% | 100% | 30% | 95% | 70% | 50% | 40% | 95% | 100% | 100% | 10% | –
2 | COc1c(Cl)cc(F)c(-c2nn(C)c(OC(F)F)c2Cl)c1NC1CCCC1 [Compound 1-60] | 100% | 10% | 0% | 100% | 100% | 0% | 80% | 100% | 0% | – | 0% | 30% | 100% | 100% | 50% | –
3 | COc1c(Cl)cc(F)c(-c2nn(C)c(OC(F)F)c2Cl)c1N(C(=O)C=C(C)C)C(=O)C=C(C)C [Compound 1-11] | 100% | 40% | 30% | 70% | 100% | 100% | 40% | 100% | 70% | 30% | 40% | 100% | 100% | 100% | 30% | –
4 | Cn1nc(-c2c(F)cc(Cl)c(OC(F)F)c2N)c(Cl)c1OC(F)F [Compound 1-81, 3-chloro-6-[4-chloro-5-(difluoromethoxy)-1-methyl-1H-pyrazol-3-yl]-2-(difluoromethoxy)-5-fluorobenzenamine] | – | 100% | 10% | – | – | 100% | – | 100% | 90% | 60% | 20% | 100% | – | – | – | growth controlling degree, SETVI ([1]; 125 g a.i./ha): 100%; growth controlling degree, ECHCO ([4]; 125 g a.i./ha): 100%; growth controlling degree, ABUTH ([5]; 125 g a.i./ha): 100%; growth controlling degree, DIGSP ([7]; 125 g a.i./ha): 100%; growth controlling degree, AMARE ([13]; 125 g a.i./ha): 100%; growth controlling degree, SIDSP ([14]; 125 g a.i./ha): 100%; growth controlling degree, ZEAMX ([15]; 125 g a.i./ha): 90%
5 | COc1c(Cl)cc(F)c(-c2nn(C)c(OC(F)F)c2Cl)c1N(C=O)CC(C)=O [Compound 1-14] | 100% | 98% | 40% | 98% | 100% | 100% | 98% | 100% | 98% | 100% | 40% | 100% | 100% | 100% | 40% | –
6 | COc1c(Cl)cc(F)c(-c2nn(C)c(OC(F)F)c2Cl)c1NC(=O)C=C(C)C [Compound 1-9] | 100% | 98% | 70% | 80% | 100% | 100% | 98% | 100% | 80% | 70% | 80% | 100% | 100% | 100% | 70% | –
7 | CNc1c(OC)c(Cl)cc(F)c1-c1nn(C)c(OC(F)F)c1Cl [Compound 1-58] | 100% | 100% | 0% | 100% | 100% | 100% | 100% | 100% | 100% | – | 60% | 100% | 100% | 100% | 100% | –
8 | COc1c(Cl)cc(F)c(-c2nn(C)c(OC(F)F)c2Cl)c1NC(C)C [Compound 1-59] | 100% | 100% | 10% | 100% | 100% | 100% | 98% | 100% | 60% | – | 50% | 100% | 100% | 100% | 80% | –
9 | COc1c(Cl)cc(F)c(-c2nn(C)c(OC(F)F)c2Cl)c1N(C)C=O [Compound 1-6] | 100% | 100% | 30% | 60% | 100% | 40% | 70% | 90% | 20% | – | 20% | 50% | 100% | 100% | 30% | –
